Measurements reported in patent publication US20240277899A1, “PRODUCTION METHOD OF MYOCARDIAL CELL LAYER, MYOCARDIAL CELL LAYER, AND USE THEREOF” (FUJIFILM Corporation, priority 2021, published 2024).
Like-named read-outs stand apart in the source and are kept apart here.

Tested on: myocardial cell layer of myocardial cell C (iCell Cardiomyocytes^2, purity 80%)
Test: Drug screening: electrical signal of spontaneous beating of the myocardial cell layer measured by MEA (QT interval, beat rate, cardiotoxicity)
Settings: for myocardial beat rate on addition of the drug: MEA 5 minutes after adding drug, Day 17; for myocardial beat rate reaction, TW compared with Control: TW layer versus Control layer
Procedure: iCell (registered trademark) Cardiomyocytes^2 was thawed according to “iCell Cardiomyocytes^2 User's Guide” to prepare myocardial cells C (purity of the myocardial cells 100%). In addition, myocardium-derived fibroblasts (NHCF-V human cardiac fibroblasts, Lonza, CC-2904) were added to the myocardial cells C to prepare myocardial cells with a purity of 25%, 50%, and 75%, respectively. Each of the prepared myocardial cells was dispersed at 1×10^6 cells/cm^2 and scattered on the seeding surface of the cells of the culture container 3 prepared in Example 1 to form a myocardial cell layer. The cells were cultured in the same manner as in Example 2, a beating frequency was measured, and stability of the TW was evaluated.
Using the myocardial cell C (the myocardial cell with a purity of 80%, which was obtained in the same manner as in Example 4) and the above-described culture container 3 (biodegradable fiber material), a myocardial cell layer was formed in the same manner as in Example 4. […] In addition, the beating frequency was measured up to Day 14 (TW). As a control, the beating frequency was measured in the same manner for those (Control) in which the TW was stopped by exchanging the culture medium with a culture medium at 4° C. on Day 2.
A culture container 3 (biodegradable fiber material) was created in the same manner as in Example 10. In addition, a culture container 3 (PC) was created in the same manner as for the culture container 3 (biodegradable fiber material), using polycarbonate (PC) porous membrane (Thermo Fisher Scientific, Inc., Nunc™ Polycarbonate Cell Culture Cell Inserts in Multi-Well Plates 140644) as a scaffold material. A myocardial cell layer was formed in the same manner as in Example 2, using the myocardial cells B, the culture container 3 (biodegradable fiber material), and the culture container 3 (PC). […] After Day 14, the electrical signal of myocardial spontaneous beating was measured by MEA by stopping the TW by exchanging the culture medium with a culture medium at 4° C. Specifically, data of extracellular Field Potentials (FPs) was recorded on a multielectrode array (MEA) system (USB-ME64-System, Multi Channel Systems, Germany).
A culture container 3 (biodegradable fiber material) was created in the same manner as in Example 10. Using the myocardial cell C (the myocardial cell with a purity of 80%, which was obtained in the same manner as in Example 4) and the above-described culture container 3 (biodegradable fiber material), a myocardial cell layer was formed in the same manner as in Example 4. Those in which the generated TW was stably maintained up to Day 14 (TW), and those in which TW was stopped by exchanging the culture medium with a culture medium at 4° C. on Day 2 (Control), that is, a total of two kinds were produced.

Structure (SMILES) | myocardial beat rate on addition of the drug | myocardial beat rate reaction, TW compared with Control (MEA 5 minutes after drug) | QT interval extension, TW compared with Control (TW layer (TW maintained up to Day 14) versus Control layer (TW stopped on Day 2), MEA 5 minutes after drug) | QT interval as the concentration increased | QT interval extension, TW compared with Control
CC(C)NCC(O)c1ccc(O)c(O)c1 (centres unmarked) [isoproterenol] | increased | more sensitive in reaction to isoproterenol as compared with Control |  |  | 
Cc1cccc(C)c1OCC(C)N (centres unmarked) [mexiletine] |  |  | smaller than Control |  | 
COc1ccc(CCN(C)CCCC(C#N)(c2ccc(OC)c(OC)c2)C(C)C)cc1OC (centres unmarked) [verapamil] | increased | more sensitive in reaction to verapamil as compared with Control |  |  | 
CC(=O)Oc1ccccc1C(=O)O [aspirin] |  | almost the same |  | decreased | almost the same
